# Tested on: T1, SARM1 TIR domain (DmrB–TIR)
# T1 construct: the SARM1 TIR domain was constructed into an Fkbp variant (DmrB); expressed in transfected cells; host or cells: 293T cells
# Test: DmrB–TIR dimerization (AP20187)-induced cell death in 293T cells
# Format: cell-based
# Conditions: 24 h after AP20187 addition
# Source text: To verify the inhibitory mechanism of SARM1 owing to the TIR domain, the SARM1 TIR domain was constructed into an Fkbp variant (DmrB) at its N terminus, which undergoes homodimerization in the presence of AP20187 (a rapamycin analog) (Figure 2A).
# Figure 2 Design and characterization of the toxic effects of the SARM1 TIR domain in 293T cells using different compounds. (A) Scheme for TIR dimerization to verify the TIR domain using an Frb–Fkbp moiety fusion. (B) Compounds used and NR display prevention of DmrB–TIR-dependent death 24 h after AP20187 addition.
smiles,measurement,value
NC(=O)c1ccc[n+]([C@@H]2O[C@H](CO)[C@@H](O)[C@H]2O)c1 [NR],prevention of DmrB–TIR-dependent cell death (cell viability),cell death caused by TIR dimerization was alleviated
